{"source": "patent US5571799A", "about": "“(2'-5') oligoadenylate analogues useful as inhibitors of host-v5.-graft response” (Basco, Ltd., priority 1994, dated 1996)", "key": {"T-killers": {"system": "T-killers", "experiment": "T-killers in monkeys after kidney transplantation", "type": "in vivo, Macaque Rh. monkeys", "details": "second group, 50 μg/kg every other day", "description": "FLOW CYTOFLUOROGRAFIC ANALYSIS OF LYMPHOCYTE SUBSETS\nBlood samples (100 μl of whole blood) were placed into a 12×17 tube. To these cells 20 μl of purified monoclonal antibodies were added with specificity for human cytotoxic/suppressor cells anti-Leu-2a (CD8), human helper/inducer anti-Leu-3a (CD4) and FITC conjugated monoclonal antibodies with specificity for natural killer cells-anti-Leu11c (CD16) (Becton Dickinson, San Jose). After 30 minutes incubation on ice, the cells were washed once and 20 μl of goat-antimouse chain phycoerythrin (Sigma P1286) conjugate were added to the tube with anti-Leu-2a and anti-Leu-3a monoclonal antibodies.\nAfter erythrocyte lysing with FACS lysing solution (Becton Dickinson, San Jose) the cells were analyzed on FACScan flow cytometer (Becton Dickinson, San Jose) with scatter gate set on lymphocyte fraction.\nThe experiments were performed on 4 year-old Macaque Rh. monkeys. Each cohort consisted of 3 animals. […] The results of the experiments were evaluated clinically: by the presence or absence of urination from the ureterocutaneostoma.\nAfter intravenous anesthesia with Ketalar®, an extraperitoneal access to the left kidney was performed through layer by layer cuts to the left lumbar region. The kidney was excised from the surrounding tissues. […]"}, "transplanted kidney": {"system": "transplanted kidney", "experiment": "Kidney allotransplantation using chinchilla rabbits", "type": "in vivo", "description": "Kidney allotransplantations were performed using chinchilla rabbits of the same sex, weighing 5.0-6.5 kg. In the series of 10 rabbits, allogenic kidneys were transplanted on the neck vessels, rabbit ureter was taken outside for performing ureterocutaneostoma. Anastomosis was performed on the donor kidney vessels according to the \"end-into-end\" pattern, with the external carotid artery and the jugular vein joined by means of their preliminary cannulation and fixation by the cannulae with the recipient vessels.\nThe recipient rabbits had combined anesthesia: intravenous introduction of hexenal at a rate of 10 mg per 1.0 kg. body weight was supplemented by local anesthesia with 0.25-0.5% novocaine solution up to 15.0 ml. An intact rabbit served as a kidney donor, whose kidneys were exposed by means of transperitoneal access and perfused with 500 ml of Eurocollins solution, in situ. Simultaneously with the kidney perfusion, kidney vessels and ureters were utilized, the latter being cut at the level of iliac vessels. Having performed perfusion without extracting a kidney from the donor, kidney vessels were cannulated from the aorta and vena cava, the canulae were fixed with separate ligatures and the vessels were released. After this, the kidney was extracted.\nThe organs were preserved at the temperature of melting ice. Then we proceeded directly to kidney transplantation. The preservation lasted for about 2.5-3.0 hours and thermal ischemia (secondary) duration was 30-40 minutes.\nImmunosuppression was performed by IV injection of (2'-5')A2 Ar-epoxy at a dose of 5 μg per 1.0 kg body weight at 0.1 ml of the physiologic solution daily until the conclusion of the experiment. During the first two weeks of the post-operative period, blood was taken for immunological analysis; BTR with PHA and Concanavalin A were tested.\nThe results of the experiments were evaluated clinically, by the presence or absence of urination from the ureterocutaneostoma and by the behavior of the experimental animals."}}, "data": [{"substance": "Adenylyl (2'-5')adenylyl (2'-5')-9-(2,3-anhydro-β-D-ribofuranosyl) adenine disodium salt [(2'-5')A2 Ar-epoxy]", "values": [{"measurement": "T-killers, in words", "setting": "T-killers", "result": "Analogous suppression effect"}, {"measurement": "animals with positive results (graft function)", "setting": "transplanted kidney; 10 rabbits, 5 μg/kg daily IV", "result": "four"}, {"measurement": "rabbits with no graft function in the early postoperative period", "setting": "transplanted kidney; 10 rabbits, probably vesicular thrombosis", "result": "four"}, {"measurement": "time to death after nephrectomy", "setting": "transplanted kidney; another rabbit", "result": "≤ 48", "unit": "h"}, {"measurement": "rabbits with generalized viral infection of the respiratory tract", "setting": "transplanted kidney; fatal", "result": 2, "unit": "rabbits"}, {"measurement": "duration of function of the grafted kidney", "setting": "transplanted kidney; first group, four animals, 5 μg/kg daily IV", "result": "at least 2 months"}, {"measurement": "death after transplantation (wound suppuration, sepsis)", "setting": "transplanted kidney; fourth group, single rabbit", "result": "death within the first week after transplantation"}, {"measurement": "graft function after ablation of contralateral kidney, in words", "setting": "transplanted kidney; one rabbit, 1 month after operation", "result": "the grafted kidney continued functioning"}, {"measurement": "period of normal functioning of the transplanted kidney", "setting": "transplanted kidney; rabbits, IV 5 μg/kg (summary)", "result": 3, "unit": "months"}]}]}
